Each block holds one compound with its values, some of them ahead of it.
Experiments:
[1] = cited from earlier work
RPMI-8226 xenograft = assay: MM xenograft mouse model, single agent, 18 days; format: in vivo, NOD/SCID mice; conditions: for body weight versus control: 18 days treatment
Procedure: (§1) Tumor size was measured every other day using calipers, and tumor volume was calculated with the formula: V = 0.5 (a × b^2), where a is the long diameter of the tumor and b is the short diameter of the tumor. Mice were killed when the tumor reached 2 cm^3 or was ulcerated. Tumor growth was evaluated from the first day of treatment until the end of experiment.

MM.1S xenograft = assay: MM xenograft mouse model, single agent, 18 days; format: in vivo, NOD/SCID mice; conditions: for body weight versus control: 18 days treatment
Procedure: as §1

hERG = hERG (Homo sapiens, UniProt Q12809); conditions: cited from earlier work
MMP12 = MMP12 (Homo sapiens, UniProt P39900); assay: non-HDAC enzyme inhibition selectivity; conditions: read-out: Inhibition rate (%) (200 μM)
MM.1S tumor tissues = assay: PD analysis of acetylation in tumor tissue by Western blotting; format: in vivo, NOD/SCID mice; conditions: 75 mg·kg^-1·d^-1 bid, 1 h after last dose
Procedure: For PD analysis, mice were killed 1 h after treatment, tumor tissues were collected for WB analysis of acetylated α-tubulin and acetylated histone H3 levels, as before indicated.

SIRT2 = SIRT2 (Homo sapiens, UniProt Q8IXJ6); assay: non-HDAC enzyme inhibition selectivity; format: biochemical; conditions: read-out: Inhibition rate (%) (200 μM)
HDAC5 = conditions: cited from earlier work
DPP4 = DPP4 (Homo sapiens, UniProt P27487); assay: non-HDAC enzyme inhibition selectivity; conditions: read-out: Inhibition rate (%) (200 μM)
SIRT1 = SIRT1 (Homo sapiens, UniProt Q96EB6); assay: non-HDAC enzyme inhibition selectivity; format: biochemical; conditions: read-out: Inhibition rate (%) (200 μM)
[2] = set-up: method as in PMID 19356036; conditions: rat and dog; cited from earlier work
PTP1B = molecular target: T1, PTP1B (Homo sapiens, UniProt P18031); assay: non-HDAC enzyme inhibition selectivity; conditions: read-out: Inhibition rate (%) (200 μM)
T1 sequence (P18031 1-435): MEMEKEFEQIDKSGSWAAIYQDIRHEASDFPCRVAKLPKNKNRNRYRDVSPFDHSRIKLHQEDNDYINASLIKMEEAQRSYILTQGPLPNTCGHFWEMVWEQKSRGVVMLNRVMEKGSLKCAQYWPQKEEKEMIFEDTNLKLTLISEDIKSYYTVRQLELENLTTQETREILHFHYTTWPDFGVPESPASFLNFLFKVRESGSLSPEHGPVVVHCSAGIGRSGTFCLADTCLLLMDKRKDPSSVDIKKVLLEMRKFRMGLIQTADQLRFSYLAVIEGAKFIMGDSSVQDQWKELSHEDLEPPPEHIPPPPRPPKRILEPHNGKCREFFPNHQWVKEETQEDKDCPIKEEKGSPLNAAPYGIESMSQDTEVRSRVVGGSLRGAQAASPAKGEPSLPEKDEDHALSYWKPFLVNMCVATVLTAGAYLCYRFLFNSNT

Syk = Syk (Homo sapiens, UniProt P43405); assay: non-HDAC enzyme inhibition selectivity; conditions: read-out: Inhibition rate (%) (200 μM)
SIRT3 = SIRT3 (Homo sapiens, UniProt Q9NTG7); assay: non-HDAC enzyme inhibition selectivity; format: biochemical; conditions: read-out: Inhibition rate (%) (200 μM)
Caspase3 = molecular target: T2, Caspase3 (Homo sapiens, UniProt P42574); assay: non-HDAC enzyme inhibition selectivity; conditions: read-out: Inhibition rate (%) (200 μM)
T2 sequence (P42574 29-175 limits assumed): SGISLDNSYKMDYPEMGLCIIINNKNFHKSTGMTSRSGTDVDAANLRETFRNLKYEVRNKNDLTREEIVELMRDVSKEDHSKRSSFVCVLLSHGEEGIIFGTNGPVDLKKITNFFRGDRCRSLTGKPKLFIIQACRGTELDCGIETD
T2 sequence (P42574 176-277 limits assumed): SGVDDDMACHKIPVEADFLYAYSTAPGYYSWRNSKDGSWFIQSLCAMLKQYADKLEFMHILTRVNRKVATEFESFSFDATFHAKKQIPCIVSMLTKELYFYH

Braf = Braf (Homo sapiens, UniProt P15056); assay: non-HDAC enzyme inhibition selectivity; conditions: read-out: Inhibition rate (%) (200 μM)
AuroraA = AuroraA (Homo sapiens, UniProt O14965); assay: non-HDAC enzyme inhibition selectivity; conditions: read-out: Inhibition rate (%) (200 μM)
PKCepsilon = molecular target: T3, PKCepsilon (Homo sapiens, UniProt Q02156); assay: non-HDAC enzyme inhibition selectivity; conditions: read-out: Inhibition rate (%) (200 μM)
T3 sequence (Q02156 1-737): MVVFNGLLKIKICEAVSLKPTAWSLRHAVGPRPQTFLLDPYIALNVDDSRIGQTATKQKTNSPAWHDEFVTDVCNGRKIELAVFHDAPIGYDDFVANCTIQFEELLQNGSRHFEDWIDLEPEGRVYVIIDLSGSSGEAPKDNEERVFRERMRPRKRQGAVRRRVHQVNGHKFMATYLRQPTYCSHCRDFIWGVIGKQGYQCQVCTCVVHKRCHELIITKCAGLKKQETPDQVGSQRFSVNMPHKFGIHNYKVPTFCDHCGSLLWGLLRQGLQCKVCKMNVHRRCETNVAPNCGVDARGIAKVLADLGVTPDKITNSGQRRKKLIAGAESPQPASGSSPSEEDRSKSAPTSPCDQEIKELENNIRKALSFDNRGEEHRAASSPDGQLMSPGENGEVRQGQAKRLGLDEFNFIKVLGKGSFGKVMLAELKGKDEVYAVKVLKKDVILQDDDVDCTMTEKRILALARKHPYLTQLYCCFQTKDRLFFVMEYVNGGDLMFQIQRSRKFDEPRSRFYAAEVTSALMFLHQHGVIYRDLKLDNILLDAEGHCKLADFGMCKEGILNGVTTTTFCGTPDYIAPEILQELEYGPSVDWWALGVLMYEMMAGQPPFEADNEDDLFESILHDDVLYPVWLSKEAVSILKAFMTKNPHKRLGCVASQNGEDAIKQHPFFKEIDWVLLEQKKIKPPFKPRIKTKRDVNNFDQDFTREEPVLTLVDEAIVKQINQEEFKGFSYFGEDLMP

[3] = 75 mg·kg^-1·d^-1 bid, oral, 18 days

hERG, sequence (Q12809 whole entry): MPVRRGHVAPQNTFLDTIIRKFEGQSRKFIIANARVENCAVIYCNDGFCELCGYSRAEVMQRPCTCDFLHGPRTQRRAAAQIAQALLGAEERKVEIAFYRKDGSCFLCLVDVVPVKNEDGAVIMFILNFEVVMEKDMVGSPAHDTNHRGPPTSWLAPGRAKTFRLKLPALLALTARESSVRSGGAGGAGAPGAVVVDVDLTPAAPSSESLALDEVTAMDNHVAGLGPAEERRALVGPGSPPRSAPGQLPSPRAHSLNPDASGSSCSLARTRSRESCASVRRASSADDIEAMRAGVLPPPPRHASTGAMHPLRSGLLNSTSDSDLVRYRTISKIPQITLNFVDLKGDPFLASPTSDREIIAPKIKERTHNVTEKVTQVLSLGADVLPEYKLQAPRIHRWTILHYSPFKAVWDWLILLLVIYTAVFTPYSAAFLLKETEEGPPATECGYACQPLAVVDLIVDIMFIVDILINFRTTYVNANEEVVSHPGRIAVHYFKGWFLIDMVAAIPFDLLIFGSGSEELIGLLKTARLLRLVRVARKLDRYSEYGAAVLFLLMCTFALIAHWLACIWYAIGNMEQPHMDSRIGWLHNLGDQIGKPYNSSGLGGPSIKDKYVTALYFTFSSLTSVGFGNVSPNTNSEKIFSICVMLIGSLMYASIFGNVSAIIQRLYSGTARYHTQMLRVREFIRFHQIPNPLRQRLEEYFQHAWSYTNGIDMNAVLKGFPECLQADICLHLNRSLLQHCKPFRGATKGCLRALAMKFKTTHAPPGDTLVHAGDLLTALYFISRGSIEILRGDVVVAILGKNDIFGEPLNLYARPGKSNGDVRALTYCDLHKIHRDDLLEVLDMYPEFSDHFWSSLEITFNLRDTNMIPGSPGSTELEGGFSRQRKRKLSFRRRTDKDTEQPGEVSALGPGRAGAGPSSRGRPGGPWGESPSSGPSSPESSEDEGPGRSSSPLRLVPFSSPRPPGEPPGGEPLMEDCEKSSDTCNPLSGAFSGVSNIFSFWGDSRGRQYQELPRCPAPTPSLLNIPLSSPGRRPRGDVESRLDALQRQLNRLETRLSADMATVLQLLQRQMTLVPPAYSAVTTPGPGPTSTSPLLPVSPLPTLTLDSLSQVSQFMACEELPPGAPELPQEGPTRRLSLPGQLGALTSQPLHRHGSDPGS
SIRT2, sequence (Q8IXJ6 whole entry, species assumed): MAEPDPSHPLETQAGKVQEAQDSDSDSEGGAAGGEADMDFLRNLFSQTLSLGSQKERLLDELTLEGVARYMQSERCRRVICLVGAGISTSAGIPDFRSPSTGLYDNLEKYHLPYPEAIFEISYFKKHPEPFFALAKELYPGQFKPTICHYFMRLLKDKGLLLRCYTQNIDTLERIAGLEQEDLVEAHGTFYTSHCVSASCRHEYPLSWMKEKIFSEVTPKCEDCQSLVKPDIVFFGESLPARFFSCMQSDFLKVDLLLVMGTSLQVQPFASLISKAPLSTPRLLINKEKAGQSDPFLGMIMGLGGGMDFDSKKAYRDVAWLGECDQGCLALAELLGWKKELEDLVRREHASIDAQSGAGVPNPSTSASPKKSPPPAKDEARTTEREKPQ
Braf, sequence (P15056 whole entry, species assumed): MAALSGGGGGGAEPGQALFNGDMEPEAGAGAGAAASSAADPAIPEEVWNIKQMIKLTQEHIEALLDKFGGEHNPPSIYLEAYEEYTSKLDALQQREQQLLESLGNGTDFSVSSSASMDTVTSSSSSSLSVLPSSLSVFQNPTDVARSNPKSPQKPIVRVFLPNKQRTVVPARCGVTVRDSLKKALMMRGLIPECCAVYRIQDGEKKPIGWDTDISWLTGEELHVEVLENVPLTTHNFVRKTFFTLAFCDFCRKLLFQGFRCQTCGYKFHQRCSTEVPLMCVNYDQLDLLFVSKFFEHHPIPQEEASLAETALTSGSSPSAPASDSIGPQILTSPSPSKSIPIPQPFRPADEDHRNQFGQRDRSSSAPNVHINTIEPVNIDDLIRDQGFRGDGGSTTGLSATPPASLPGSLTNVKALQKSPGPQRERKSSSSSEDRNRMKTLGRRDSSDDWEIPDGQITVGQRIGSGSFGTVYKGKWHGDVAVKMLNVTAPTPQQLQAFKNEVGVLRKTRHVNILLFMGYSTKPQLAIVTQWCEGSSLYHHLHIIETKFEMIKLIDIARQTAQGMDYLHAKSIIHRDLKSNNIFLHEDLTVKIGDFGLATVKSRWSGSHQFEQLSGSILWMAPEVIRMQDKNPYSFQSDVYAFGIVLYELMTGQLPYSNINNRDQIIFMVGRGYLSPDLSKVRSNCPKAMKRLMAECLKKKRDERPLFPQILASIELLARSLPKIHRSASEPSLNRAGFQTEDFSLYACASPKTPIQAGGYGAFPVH
SIRT3, sequence (Q9NTG7 whole entry, species assumed): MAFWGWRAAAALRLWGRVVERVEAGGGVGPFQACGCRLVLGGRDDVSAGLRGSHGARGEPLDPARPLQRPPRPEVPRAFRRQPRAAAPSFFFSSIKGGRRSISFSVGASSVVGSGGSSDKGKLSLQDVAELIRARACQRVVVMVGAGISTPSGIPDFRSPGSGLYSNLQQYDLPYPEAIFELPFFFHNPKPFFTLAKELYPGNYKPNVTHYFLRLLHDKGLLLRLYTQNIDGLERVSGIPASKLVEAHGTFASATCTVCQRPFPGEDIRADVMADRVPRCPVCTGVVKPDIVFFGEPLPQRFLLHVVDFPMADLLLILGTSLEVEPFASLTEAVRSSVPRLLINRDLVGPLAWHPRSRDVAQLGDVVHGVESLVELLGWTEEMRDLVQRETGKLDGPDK
DPP4, sequence (P27487 whole entry, species assumed): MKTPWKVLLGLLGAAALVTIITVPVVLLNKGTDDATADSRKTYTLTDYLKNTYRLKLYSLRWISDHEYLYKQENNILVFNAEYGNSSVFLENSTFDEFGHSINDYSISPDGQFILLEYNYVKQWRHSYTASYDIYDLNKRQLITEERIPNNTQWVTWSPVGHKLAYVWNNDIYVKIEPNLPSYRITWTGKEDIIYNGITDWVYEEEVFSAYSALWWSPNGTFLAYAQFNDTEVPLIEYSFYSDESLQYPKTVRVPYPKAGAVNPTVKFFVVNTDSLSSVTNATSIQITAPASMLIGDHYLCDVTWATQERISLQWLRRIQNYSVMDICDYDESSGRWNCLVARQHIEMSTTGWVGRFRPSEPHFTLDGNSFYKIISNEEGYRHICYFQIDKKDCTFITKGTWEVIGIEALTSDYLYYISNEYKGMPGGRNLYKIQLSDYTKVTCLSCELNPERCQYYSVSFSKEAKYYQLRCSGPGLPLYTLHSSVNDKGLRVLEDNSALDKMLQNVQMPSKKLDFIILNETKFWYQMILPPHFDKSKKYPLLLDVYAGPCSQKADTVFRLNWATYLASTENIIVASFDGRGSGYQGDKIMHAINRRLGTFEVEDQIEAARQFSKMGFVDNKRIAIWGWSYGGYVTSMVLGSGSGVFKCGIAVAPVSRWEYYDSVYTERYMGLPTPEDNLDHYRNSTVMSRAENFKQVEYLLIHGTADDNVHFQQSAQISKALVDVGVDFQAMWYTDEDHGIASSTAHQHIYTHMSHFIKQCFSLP
AuroraA, sequence (O14965 whole entry): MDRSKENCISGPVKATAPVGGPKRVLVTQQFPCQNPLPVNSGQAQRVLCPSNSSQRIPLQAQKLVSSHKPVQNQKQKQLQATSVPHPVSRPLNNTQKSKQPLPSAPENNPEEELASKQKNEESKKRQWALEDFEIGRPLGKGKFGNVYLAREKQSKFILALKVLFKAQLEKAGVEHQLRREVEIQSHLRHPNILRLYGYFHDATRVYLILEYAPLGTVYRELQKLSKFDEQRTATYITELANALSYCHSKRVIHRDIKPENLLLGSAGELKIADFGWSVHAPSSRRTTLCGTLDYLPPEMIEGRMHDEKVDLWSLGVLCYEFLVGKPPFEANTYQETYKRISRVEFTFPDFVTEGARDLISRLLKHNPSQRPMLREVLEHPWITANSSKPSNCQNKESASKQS
MMP12, sequence (P39900 106-470, species assumed): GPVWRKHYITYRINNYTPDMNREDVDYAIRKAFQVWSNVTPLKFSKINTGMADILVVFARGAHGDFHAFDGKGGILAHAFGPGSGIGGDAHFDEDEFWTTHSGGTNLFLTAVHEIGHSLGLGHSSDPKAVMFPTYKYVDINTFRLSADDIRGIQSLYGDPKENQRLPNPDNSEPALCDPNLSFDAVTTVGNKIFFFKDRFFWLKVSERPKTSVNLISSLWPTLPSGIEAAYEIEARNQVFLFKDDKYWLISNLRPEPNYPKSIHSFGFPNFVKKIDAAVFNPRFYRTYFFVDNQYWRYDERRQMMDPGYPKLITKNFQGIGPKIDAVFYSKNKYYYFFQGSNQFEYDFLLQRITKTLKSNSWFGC
SIRT1, sequence (Q96EB6 whole entry, species assumed): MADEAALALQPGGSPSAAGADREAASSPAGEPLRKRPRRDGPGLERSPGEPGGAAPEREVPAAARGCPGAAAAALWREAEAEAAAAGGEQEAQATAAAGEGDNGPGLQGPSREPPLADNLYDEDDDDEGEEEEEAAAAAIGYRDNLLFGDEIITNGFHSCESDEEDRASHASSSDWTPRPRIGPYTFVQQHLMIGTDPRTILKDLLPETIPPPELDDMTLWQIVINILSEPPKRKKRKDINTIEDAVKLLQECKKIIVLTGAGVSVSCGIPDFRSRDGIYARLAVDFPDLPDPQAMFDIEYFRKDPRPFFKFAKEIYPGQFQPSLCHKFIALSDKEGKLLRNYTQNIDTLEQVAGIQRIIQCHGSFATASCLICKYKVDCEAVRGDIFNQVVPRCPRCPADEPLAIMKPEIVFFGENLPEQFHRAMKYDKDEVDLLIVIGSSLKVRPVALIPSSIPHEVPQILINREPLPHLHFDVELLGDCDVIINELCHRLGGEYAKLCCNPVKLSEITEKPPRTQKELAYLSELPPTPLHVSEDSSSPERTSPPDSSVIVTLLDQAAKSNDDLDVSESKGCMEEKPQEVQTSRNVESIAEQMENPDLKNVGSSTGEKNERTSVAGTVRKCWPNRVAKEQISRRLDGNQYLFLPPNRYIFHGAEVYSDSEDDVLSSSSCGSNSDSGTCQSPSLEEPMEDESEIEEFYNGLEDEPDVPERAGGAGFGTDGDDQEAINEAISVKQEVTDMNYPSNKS

Structure (SMILES): O=C(/C=C/c1cccc(S(=O)(=O)Nc2ccccc2)c1)NO [Belinostat]
t1/2 [1]: 1.6 h

Structure (SMILES): CC(C)C[C@H](NC(=O)[C@H](Cc1ccccc1)NC(=O)c1cnccn1)B(O)O [PS341]
body weight versus control (RPMI-8226 xenograft): no significant weight loss
body weight versus control (MM.1S xenograft): no significant weight loss

Structure (SMILES): Cc1[nH]c2ccccc2c1CCNCc1ccc(/C=C/C(=O)NO)cc1 [Panobinostat]
IC50 (hERG; read-out: IC50 for hERG inhibition): 3100 nM

inhibition at 200 µM (MMP12): 61.1 ± 3.3%
inhibition at 200 µM (SIRT2): 43.6 ± 0.8%
inhibition at 200 µM (DPP4): 11.3 ± 5.4%
inhibition at 200 µM (SIRT1): 7.6 ± 8.8%
inhibition at 200 µM (PTP1B): 9.3 ± 6.2%
inhibition at 200 µM (Syk): 13.7 ± 1.8%
inhibition at 200 µM (SIRT3): 27.8 ± 9.2%
inhibition at 200 µM (Caspase3): 3.9 ± 2.5%
inhibition at 200 µM (Braf): 17.6 ± 9.8%
inhibition at 200 µM (AuroraA): 18.8 ± 7.8%
inhibition at 200 µM (PKCepsilon): 0.2 ± 5.7%
Structure (SMILES): O=C(CCCCCCC(=O)Nc1ccccc1)NO [SAHA]
acetylated α-tubulin and acetylated histone H3 levels in tumor tissues (MM.1S tumor tissues): significant enhancement
elimination half-life [2]: short
oral bioavailability [2]: low
serum clearance [2]: high
T/C (%) (RPMI-8226 xenograft; [3]): 36.37%
body weight versus control (RPMI-8226 xenograft): no significant weight loss
T/C (%) (MM.1S xenograft; [3]): 49.40%
body weight versus control (MM.1S xenograft): no significant weight loss

Structure (SMILES): CCCCc1nc2cc(/C=C/C(=O)NO)ccc2n1CCN(CC)CC [SB939, (2E)-3-{2-butyl-1-[2-(diethylamino)ethyl]-1H-benzimidazol-5-yl}-N-hydroxyacrylamide]
concentration up to which no binding to hERG channels (hERG): > 10 µM
